According to PubChem BioAssay (NCI):
Values joined by “and” are separate entries in the source; they are usually repeats but may differ in a detail not shown here. Equal entries are not always repeated.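 Step 1: Grow cells in 96-well plates. Step 2: Expose to compound for 48 hours at 5 concentrations. Step 3: Interpolate endpoints linearly; if unreached, use highest concentration. At the GI50, growth is halved. Definition used: TGI = concentration required for complete inhibition of growth.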

Key:
Experiment in all cases: NCI-60 cell line screen, 48 h
[1] = system: HS 578T breast
[2] = system: DU-145 prostate
[3] = system: MCF7 breast
[4] = system: PC-3 prostate
[5] = system: T-47D breast
[6] = system: LXFL 529 NSCLC
[7] = system: DMS 114 small cell lung
[8] = system: SNB-78 CNS
[9] = system: DLD-1 colon

In the case of `N#Cc1c(N)c(C(=O)c2ccc3c(c2)OCCO3)n2c1CCCC2`, the GI50 [1] is reported as 3.08 µM, the TGI [1] is reported as over 74.9 µM and the GI50 [2] is reported as 4.45 µM. It also gave a TGI [2] of over 100 µM, a GI50 [3] of 2.28 µM and a TGI [3] of over 100 µM. For the same compound, the GI50 [4] was 4.32 µM, the TGI [4] was over 100 µM and the GI50 [5] was 4.38 µM. For the same compound, the TGI [5] was over 100 µM.

Work on `O=C(N/N=C/c1ccc([N+](=O)[O-])cc1)c1ccccc1Nc1ccnc(C(F)(F)F)c1` yielded a GI50 [1] of 2.26 µM, a TGI [1] of 49.8 µM and a GI50 [2] of 11.9 µM. For the same compound, the TGI [2] was 45.5 µM, the GI50 [3] was 19.9 µM and the TGI [3] was 45.6 µM. For the same compound, the GI50 [4] was 12.9 µM, the TGI [4] was 29.7 µM and the GI50 [5] was 21.6 µM. It also gave a TGI [5] of 82.4 µM.

Compound `[Mn+3].[O-][Cl+3]([O-])([O-])O.[O-]c1ccccc1C=NCCN1CC1.[O-]c1ccccc1C=NCCN1CC1` has a GI50 [1] of 33.6 µM, a TGI [1] of over 100 µM and a GI50 [2] of 22.7 µM. For the same compound, the TGI [2] was over 100 µM, the GI50 [3] was 26.7 µM and the TGI [3] was over 100 µM. It also gave a GI50 [4] of 19.9 µM, a TGI [4] of over 100 µM and a GI50 [5] of 20.3 µM. For the same compound, the TGI [5] was over 100 µM.

With `CON1C(=O)C2(CCCCC2)C(=O)C12C=CC(C)CC2` (configuration not stated) the TGI [6] was over 100 µM, the TGI [7] was over 100 µM and the TGI [8] was over 100 µM.

`COc1cc(/C=C2\C[C@H]3[C@@H]4CC=C5C[C@@H](O)CC[C@]5(C)[C@H]4CC[C@]3(C)[C@H]2O)ccc1OCCN1CCCCC1` showed a GI50 [1] of 1.44 µM, a TGI [1] of over 10.7 µM and a GI50 [2] of 1.61 µM. For the same compound, the TGI [2] was 4.58 µM, the GI50 [3] was 1.31 µM and the TGI [3] was 20.5 µM. It also gave a GI50 [4] of 1.03 µM, a TGI [4] of 7.01 µM and a GI50 [5] of 2.05 µM. The TGI [5] was 16.2 µM.

In the case of `CN1CCN(c2ccncc2S(=O)(=O)N2CCN(C)CC2)CC1`, the TGI [1] is reported as over 100 µM, the TGI [2] is reported as over 100 µM and the TGI [3] is reported as over 100 µM. The TGI [4] was over 100 µM and the TGI [5] was over 100 µM.

For `C[C@]1(c2nc3c(C(N)=O)cccc3[nH]2)CCCN1`, the GI50 [1] was over 100 µM, the TGI [1] was over 100 µM and the GI50 [2] was 74 µM and > 100 µM. The TGI [2] was over 100 µM, the GI50 [3] was 34.2 µM and > 71.3 µM and the TGI [3] was over 100 µM. The GI50 [4] was over 100 µM, the TGI [4] was over 100 µM and the GI50 [5] was 68.4 µM and > 100 µM. For the same compound, the TGI [5] was over 100 µM.

With `CCOc1ccc(Nc2ccnc3cc(Cl)ccc23)cc1` the GI50 [1] was 38.6 µM, the TGI [1] was over 100 µM and the GI50 [2] was over 100 µM. It also gave a TGI [2] of over 100 µM, a GI50 [3] of 34.5 µM and a TGI [3] of over 100 µM. The GI50 [4] was over 100 µM, the TGI [4] was over 100 µM and the GI50 [5] was over 100 µM. It also gave a TGI [5] of over 100 µM.

Compound `Nc1ccc(C(=O)CC2(O)C(=O)Nc3ccccc32)cc1` (configuration not stated) has a TGI [6] of over 100 µM, a TGI [7] of over 100 µM and a TGI [8] of over 100 µM. It also gave a TGI [9] of over 100 µM.

With `NC(CCl)=NCC12CC3CC(CC(C3)C1)C2` the GI50 [1] was 4.47 µM, the TGI [1] was 42.1 µM and the GI50 [2] was 0.608 µM. The TGI [2] was 3.75 µM, the GI50 [3] was 0.557 µM and the TGI [3] was 6.9 µM. For the same compound, the GI50 [4] was 2.05 µM, the TGI [4] was 13.3 µM and the GI50 [5] was 1.2 µM. For the same compound, the TGI [5] was 20.1 µM.

Compound `CC1(C)CC[C@]2(C(=O)NCCNCCN)CC[C@]3(C)C(=CC[C@@H]4[C@@]5(C)CCC(=O)C(C)(C)[C@@H]5CC[C@]43C)[C@@H]2C1` has a GI50 [1] of 1.92 µM, a TGI [1] of 4.17 µM and a GI50 [2] of 1.85 µM. For the same compound, the TGI [2] was 3.41 µM, the GI50 [3] was 1.55 µM and the TGI [3] was 3.08 µM. The GI50 [4] was 1.82 µM, the TGI [4] was 3.61 µM and the GI50 [5] was 1.88 µM. It also gave a TGI [5] of 3.95 µM.
